One data set deals with T1, 5-lipoxygenase (Mus musculus, UniProt P48999).
T1 construct: over 98% of cells were confirmed as mast cells originated from bone marrow; endogenous in cells; host or cells: bone marrow-derived mast cells from male BALB/cJ mice
T1 sequence (P48999 1-674): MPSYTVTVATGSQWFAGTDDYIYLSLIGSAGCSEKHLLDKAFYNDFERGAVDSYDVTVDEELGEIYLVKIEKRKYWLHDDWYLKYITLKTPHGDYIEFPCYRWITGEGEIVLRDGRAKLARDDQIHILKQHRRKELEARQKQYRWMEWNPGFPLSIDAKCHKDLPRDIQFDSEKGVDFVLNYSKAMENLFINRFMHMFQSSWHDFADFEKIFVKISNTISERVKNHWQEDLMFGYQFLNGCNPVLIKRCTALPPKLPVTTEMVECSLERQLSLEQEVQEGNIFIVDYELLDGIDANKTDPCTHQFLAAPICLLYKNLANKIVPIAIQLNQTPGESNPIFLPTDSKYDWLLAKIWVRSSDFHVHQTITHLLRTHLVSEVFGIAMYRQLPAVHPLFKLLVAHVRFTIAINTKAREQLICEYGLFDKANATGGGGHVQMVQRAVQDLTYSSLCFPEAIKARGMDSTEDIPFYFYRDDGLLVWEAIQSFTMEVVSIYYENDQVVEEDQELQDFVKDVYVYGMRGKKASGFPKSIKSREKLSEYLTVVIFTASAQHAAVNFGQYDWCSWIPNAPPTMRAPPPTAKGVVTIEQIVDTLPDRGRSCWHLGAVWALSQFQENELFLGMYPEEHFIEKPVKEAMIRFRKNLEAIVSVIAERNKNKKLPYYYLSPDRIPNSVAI
The data set can be described thus: Measurement of 5-lipoxygenase inhibition activity (free LTC4 from SCF-stimulated bone marrow-derived mast cells, enzyme immunoassay). Format: cell-based, mouse (male BALB/cJ mice). How it is done: Measurement of 5-lipoxygenase Inhibition Activity
The obtained cells were suspended in the enriched medium to a concentration of 1×10^6 cells/ml. […] 100 ng/ml of stem cell factor (SCF) was added to the culture medium, and then, the culture was centrifuged at 120 xg for 20 min at 4° C. Then, the supernatant was separated and the amount of free LTC4 was determined using an LTC4 enzyme immunoassay kit (Cayman Chemical, Ann Arbor, Mich., U.S.A.). The stem cell factor (SCF) was recombinantly expressed by the baculovirus/insect cell expression system. After 20-min stimulation, the supernatants were isolated for further analysis by enzyme immunoassay.

[1] abbreviates: mast cells originated from bone marrow of BALB/cJ mice, 1×10^6 cells/ml, 30 min preincubation at 37° C., 100 ng/ml SCF stimulation 20 min, free LTC4 by enzyme immunoassay, vs non-treated control, read-out: IC50.

SMILES strings stand for the structures. Read-outs that look alike come from different tables or passages of the source.

The IC50 is the concentration that gives 50% inhibition. Consider `CCc1ccc(Nc2nc3cccnc3s2)cc1` [Example 2], for which the IC50 on 5-lipoxygenase (setting [1]) was 10.3 µM. In general, melting point refers to the temperature of the solid-liquid transition. `Clc1ccc(Nc2nc3cccnc3s2)cc1Cl` [Example 3] displayed a melting point of 270 to 272 °C. Also, the half-maximal inhibitory concentration (IC50) on 5-lipoxygenase (setting [1]) came to 1.58 µM.

As for `c1ccc(N=Nc2ccc(Nc3nc4ccccc4o3)cc2)cc1` [Example 4, 4-phenylazophenyl aminobenzoxazole], at 5-lipoxygenase (setting [1]), the IC50 was determined as 6.28 µM. On the same count and under the same terms, the value for `c1ccc(Nc2nc3ccccc3o2)cc1` [Example 5] was 8.91 µM.

For the compound `CCc1ccc(Nc2nc3ccccc3o2)cc1` [Example 6], the melting point is 123 to 125.3 °C. Further, the IC50 at 5-lipoxygenase (setting [1]) came to 1.21 µM.

The compound `Clc1ccc2oc(Nc3ccc(N=Nc4ccccc4)cc3)nc2c1` [Example 7] gave a melting point of 191 to 192.3 °C. The IC50 on 5-lipoxygenase (setting [1]) turned out to be 12.6 µM.

`CCc1ccc(Nc2nc3cc(Cl)ccc3o2)cc1` [Example 9] showed a melting point of 196 to 198 °C. In addition, half-maximal inhibition at 5-lipoxygenase (IC50) was put at 0.95 µM. Regarding `O=[N+]([O-])c1ccc2oc(Nc3ccc(N=Nc4ccccc4)cc3)nc2c1` [Example 10], the IC50 at 5-lipoxygenase (setting [1]) was determined as 28.4 µM. `CCc1ccc(Nc2nc3cc([N+](=O)[O-])ccc3o2)cc1` [Example 11] came in with a melting point of 161 to 163.5 °C. The IC50 at 5-lipoxygenase (setting [1]) was 23.9 µM. Turning to `c1ccc(-c2nc3ccccc3s2)cc1` [Example 12, 2-phenyl benzothiazole], the IC50 at 5-lipoxygenase (setting [1]) turned out to be 7.26 µM. In the case of `Fc1ccc(-c2nc3ccccc3s2)cc1` [Example 13], the melting point was 128 to 130.5 °C. For the same compound, on 5-lipoxygenase (setting [1]), the IC50 came out at 11.2 µM. For `O=[N+]([O-])c1ccc(-c2nc3ccccc3s2)cc1` [Example 14], the half-maximal inhibitory concentration (IC50) on 5-lipoxygenase stood at 11 µM.

In turn, `FC(F)Sc1ccccc1-c1nc2ccccc2s1` [Example 15] had a melting point of 188 to 190 °C. For the same compound, the IC50 on 5-lipoxygenase (setting [1]) is 1.54 µM.

`N#Cc1ccc(-c2nc3ccccc3s2)cc1` [Example 16] registered a melting point of 120 to 123 °C. Besides, the half-inhibitory concentration (IC50) on 5-lipoxygenase (setting [1]) was 4.32 µM. Take `CCCCOc1ccc(-c2nc3ccccc3s2)cc1` [Example 17]: the IC50 on 5-lipoxygenase (setting [1]) was determined as 9.3 µM. Regarding `O=[N+]([O-])c1ccc(Cl)c(-c2nc3ccccc3s2)c1` [Example 18], the IC50 at 5-lipoxygenase (setting [1]) amounted to 2.5 µM. The same measure, in the same setting: then `Cc1ccc(-c2nc3ccccc3s2)cc1N` [Example 19], with 4.16 µM; and `Cc1ccc(-c2nc3ccccc3s2)cc1` [Example 20], with 5.27 µM. Turning to `COc1ccc(-c2nc3ccccc3s2)cc1OC` [Example 21], the melting point lay within 132 to 133 °C. In addition, the IC50 on 5-lipoxygenase (setting [1]) worked out at 2.76 µM.

With `ClCc1cccc(-c2nc3ccccc3s2)c1` [Example 22], at 5-lipoxygenase (setting [1]), the IC50 was determined as 2.49 µM. The same measure, in the same setting: then `CCSc1ncccc1-c1nc2ccccc2s1` [Example 23], with 6.11 µM; and `Clc1ccccc1/C=C/c1nc2ccccc2s1` [Example 25], with 2.92 µM.

(Values after patent US7329682B2, “Method for inhibiting 5-lipoxygenase using a benzoxazole derivative” (EWHA University-Industry Collaboration Foundation, priority 2003, dated 2008).)
